A short description of data set [1]: Metabolic stability in liver microsomes, mouse. The note with it: for half-life at 2 μM / microsomal CLint at 2 μM: mouse, microsomes, pH 7.4. As for the experimental part: (§1) The solution B is slowly dropped into solution A, and the pH is adjusted to 7.40±0.05.
(§2) • Control drug: 4 μL Verapamil solution (10 mM) is added with 96 μL DMSO and diluted to 400 μM; • Compound to be tested: 4 μL compound to be tested (10 mM) is added with 96 μL normal saline and diluted to 400 μM.
(§3) The microsomes are stored in the refrigerator at −80° C., thawed at room temperature after being taken out, and mixed gently.
(§4) […] PBS (100 mm, pH=7.4) solution is added to the negative sample. The solution is put into water bath at 37° C. and pre-incubated for 10 minutes; • B) After incubation, 2 μL reference drug or compound to be tested (400 μM) are added into each well to start the reaction.

Data set [2] has as its target T1, δOR (Homo sapiens, UniProt P41143).
T1 construct: expressed in transfected cells; host or cells: CHO cells
The data set is described as follows: Opioid receptor competitive binding test, δOR. The conditions noted are these: compound at 10 μM; [3H]-labeled ligand; CHO cell membranes; ± SD of three measurements. As for the experimental part:
CHO cells expressing p opioid receptor, δ opioid receptor and K opioid receptor are cultured in a 10 cm^2 Petri dish (F-12 medium+10% newborn bovine serum) for several days, and the culture solution is sucked after the cells grew to the bottom of the dish. 3 ml PBS/EDTA solution (0.1M NaCl, 0.01M NaH2PO4, 0.04% EDTA) is added for digestion for 3-5 minutes. The cells are blown with a straw to get fall off completely, collected in a 40 ml centrifuge tube, centrifuged at 5000 rpm for 5 minutes, and removed with the supernatant. The centrifuge tube is added with ice-cold homogenate (50 mM HEPES PH 7.4, 3 mM MgCl2, 1 mM EGTA). The solution and precipitate are transferred to homogenizer for homogenization; Then the homogenate is transferred into a centrifuge tube, centrifuged at 18000 rpm for 15 minutes, and centrifuged twice; the obtained precipitate is added with an appropriate amount of buffer solution of 50 mM Tris-HCl and pH 7.4, homogenized and sub-packaged in centrifuge tubes. The product is stored in a refrigerator at −70° C. for later use.
20-30 μg expressed membrane receptor protein and [3H]-labeled ligand (1-2 nM) are added to the total binding tube, added with 1 μM of corresponding ligand to the corresponding nonspecific binding tube. Various screened opioid ligand drugs (see the drug compounds in Table 1 below) are added to the sample tube with 100 μL final volume. The sample is incubated at 30° C. for 30 minutes, and the reaction is terminated in ice water. The glass fiber filter paper gF/C (whatman) is used for negative pressure filtration on Millipore sample collector. The sample is eluted with 4 ml 50 mm tris-HCl (pH 7.4) for three times, dried with the filter paper, put in 0.5 ml Eppendorf tube and added with 0.5 ml lipophilic scintillation liquid. The radioactive intensity is measured with PERKIN ELMER PRI-CARB 2910 liquid scintillation counter with calculation of the inhibition rate. The experiment is repeated for more than three times, with three compound tubes in each group. Inhibition rate(or binding rate)=(total binding rate dpm−sample tube dpm)/(total binding tube dpm-nonspecific binding tube dpm)×100%
IC50 is calculated with Prism 5.0 software. The Ki value is calculated according to the following formula: Ki=IC50/(1^+[L]/Kd), wherein [L] is the concentration of the added labeled ligand, and Kd is the equilibrium dissociation parameter of the labeled ligand.

Data set [3] deals with CYP 2C9 (Homo sapiens, UniProt P11712). The experiment in a line: Inhibition of cytochrome P450 enzyme in human liver microsomes, CYP 2C9. For orientation: Liver microsomes are vesicles of endoplasmic reticulum, rich in cytochrome P450 enzymes.
Sequence of CYP 2C9 (P11712 whole entry): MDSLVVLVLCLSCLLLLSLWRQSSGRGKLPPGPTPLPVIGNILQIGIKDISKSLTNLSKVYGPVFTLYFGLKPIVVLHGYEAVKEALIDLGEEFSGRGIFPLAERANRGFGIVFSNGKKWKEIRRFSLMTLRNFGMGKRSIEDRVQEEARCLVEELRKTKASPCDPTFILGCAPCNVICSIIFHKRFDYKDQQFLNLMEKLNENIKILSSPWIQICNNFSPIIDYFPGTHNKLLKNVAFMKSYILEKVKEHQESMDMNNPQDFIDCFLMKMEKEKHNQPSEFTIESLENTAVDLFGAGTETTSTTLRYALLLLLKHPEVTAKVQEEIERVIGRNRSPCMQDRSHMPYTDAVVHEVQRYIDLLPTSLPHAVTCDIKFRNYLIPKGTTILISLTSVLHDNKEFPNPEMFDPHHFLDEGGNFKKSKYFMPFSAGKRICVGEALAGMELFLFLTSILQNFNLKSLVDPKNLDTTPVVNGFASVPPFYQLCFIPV
The target of data set [4] is T2, CYP 1A2 (Homo sapiens, UniProt P05177).
T2 sequence (P05177 1-516): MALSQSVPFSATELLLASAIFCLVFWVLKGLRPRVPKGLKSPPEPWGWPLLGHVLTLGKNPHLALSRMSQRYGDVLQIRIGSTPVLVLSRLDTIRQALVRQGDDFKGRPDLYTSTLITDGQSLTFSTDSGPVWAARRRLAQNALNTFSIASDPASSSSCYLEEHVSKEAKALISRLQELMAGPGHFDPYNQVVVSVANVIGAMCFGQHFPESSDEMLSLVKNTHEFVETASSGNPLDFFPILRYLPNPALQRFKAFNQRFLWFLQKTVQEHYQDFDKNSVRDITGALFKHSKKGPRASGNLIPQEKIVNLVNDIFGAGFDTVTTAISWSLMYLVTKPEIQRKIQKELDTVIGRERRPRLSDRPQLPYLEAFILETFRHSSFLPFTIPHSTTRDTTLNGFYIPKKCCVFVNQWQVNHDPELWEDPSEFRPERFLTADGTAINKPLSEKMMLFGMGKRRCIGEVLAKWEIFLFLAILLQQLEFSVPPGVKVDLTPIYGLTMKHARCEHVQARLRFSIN
The data set is described as follows: Inhibition of cytochrome P450 enzyme in human liver microsomes, CYP 1A2.

The target of data set [5] is CYP 3A4 (Homo sapiens, UniProt P08684). The data set is described as follows: biochemical. The note with it: CYP 3A4 IC50, human liver microsomes.
Sequence of CYP 3A4 (P08684 whole entry): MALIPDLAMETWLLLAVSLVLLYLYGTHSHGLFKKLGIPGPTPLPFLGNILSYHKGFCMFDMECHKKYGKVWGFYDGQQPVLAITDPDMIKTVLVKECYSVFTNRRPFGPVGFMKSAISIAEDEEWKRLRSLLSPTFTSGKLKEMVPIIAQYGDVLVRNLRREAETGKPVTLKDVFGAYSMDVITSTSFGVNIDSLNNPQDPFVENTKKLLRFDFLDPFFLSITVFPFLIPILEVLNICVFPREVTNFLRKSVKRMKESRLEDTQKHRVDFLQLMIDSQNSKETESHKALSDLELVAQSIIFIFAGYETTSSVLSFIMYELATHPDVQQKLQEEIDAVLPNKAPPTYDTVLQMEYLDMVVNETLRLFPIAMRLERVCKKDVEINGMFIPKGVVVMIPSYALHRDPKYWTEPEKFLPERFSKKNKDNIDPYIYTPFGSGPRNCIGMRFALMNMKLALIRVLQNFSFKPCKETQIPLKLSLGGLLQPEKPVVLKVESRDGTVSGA
Data set [6] can be described thus: Metabolic stability in liver microsomes, dog. The note with it: for half-life at 2 μM / microsomal CLint at 2 μM: dog, microsomes, pH 7.4. As for the experimental part:
as §1, §2, §3, §4

Setting [7] is: Mouse liver microsomes 0.5 mg/mL, NADPH 1 mM, compound 2 μM.
Setting [8] is: Dog liver microsomes 0.5 mg/mL, NADPH 1 mM, compound 2 μM.

The values below come from patent US12509421B2, “Preparation and application of deuterated 4-phenyl-4-piperidinols” (priority 2022, dated 2025).

Where a name gives a salt, the structure may show the parent alone. Some results are limits rather than exact numbers.

T1 sequence (P41143 whole entry): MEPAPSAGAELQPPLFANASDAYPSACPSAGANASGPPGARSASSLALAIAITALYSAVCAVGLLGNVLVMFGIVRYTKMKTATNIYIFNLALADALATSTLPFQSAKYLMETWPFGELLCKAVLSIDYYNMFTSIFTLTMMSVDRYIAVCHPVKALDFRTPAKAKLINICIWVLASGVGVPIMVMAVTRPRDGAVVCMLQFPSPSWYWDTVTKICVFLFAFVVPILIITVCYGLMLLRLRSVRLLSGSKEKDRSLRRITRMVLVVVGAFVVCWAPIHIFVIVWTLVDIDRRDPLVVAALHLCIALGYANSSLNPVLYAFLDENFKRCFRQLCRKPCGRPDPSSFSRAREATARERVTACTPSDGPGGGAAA

As usually defined, the half-life is the time needed for the level to fall by half in the phase considered. Low values mean fast loss, high ones slow loss. Broadly, the microsomal CLint is a measure of how fast metabolising enzymes remove a compound, apart from limits set by blood flow. What is called IC50 is the concentration at which inhibition is half-maximal. High values mean weaker potency, low ones greater potency. In the case of `[2H]C([2H])([2H])N(C)C[C@@H]1CN(C(=O)Cc2cc(F)c(F)cc2F)CC[C@@]1(O)c1cccc(OC)c1` [II-7hydrochloride, 1-((3R,4S)-4-hydroxy-4-(3-methoxyphenyl)-3-(((methyl-d3)amino)methyl)-1-piperidinyl)-2(2,4,5-trifluorophenyl)ethyl-1-one], the figures for the half-life at 2 μM in data set [1] and in data set [6] were 5.15 min and 5.25 min, respectively. The microsomal CLint at 2 μM in data set [1] was 661 µL/min/mg; in data set [6], 669 µL/min/mg. In addition, the δOR binding rate in data set [2] came out at 10.6 ± 2.0%. For the same compound, the IC50 is over 50 µM in data set [3], over 50 µM in data set [4], 49.7 µM in data set [5] (substrate midazolam) and 47.5 µM in data set [5] (substrate testosterone).
Take `[2H]C([2H])([2H])Oc1cccc([C@]2(O)CCN(S(=O)(=O)Cc3ccccc3)C[C@H]2CN(C([2H])([2H])[2H])C([2H])([2H])[2H])c1` [II-5hydrochloride]: the half-life at 2 μM was 6.05 min in data set [1] and 6.03 min in data set [6]. In addition, the microsomal CLint at 2 μM turned out to be 706 µL/min/mg in data set [1] and 720 µL/min/mg in data set [6]. Moreover, in data set [2], the δOR binding rate is given as 12.9 ± 1.8%. Also, the concentration for half-maximal inhibition (IC50) in data set [3], in data set [4], in data set [5] (substrate midazolam) and in data set [5] (substrate testosterone) was over 50 µM in each case.
On to `[2H]C([2H])([2H])N(C)C[C@@H]1CN(S(=O)(=O)Cc2ccccc2)CC[C@@]1(O)c1cccc(OC)c1` [II-1hydrochloride], for which the half-life at 2 μM in data set [1] came to 5.19 min; in data set [6] it was 5.01 min. The intrinsic metabolic clearance (microsomal CLint) at 2 μM in data set [1] turned out to be 659 µL/min/mg; in data set [6], 605 µL/min/mg. The compound further had a δOR binding rate in data set [2] of 11.6 ± 2.1%. Further, the IC50 was over 50 µM in data set [3], over 50 µM in data set [4], 42.9 µM in data set [5] (substrate midazolam) and 41.9 µM in data set [5] (substrate testosterone).
As to `[2H]C([2H])([2H])Oc1cccc([C@]2(O)CCN(C(=O)Cc3cc(F)c(F)cc3F)C[C@H]2CN(C([2H])([2H])[2H])C([2H])([2H])[2H])c1` [II-11hydrochloride], the results for the half-life at 2 μM in data set [1] and in data set [6] were 6.01 min and 5.99 min, respectively. Besides, the microsomal CLint at 2 μM in data set [1] is 700 µL/min/mg; in data set [6], 703 µL/min/mg. Besides, the δOR binding rate in data set [2] was found to be 10.4 ± 1.1%. In addition, the IC50 in data set [3], in data set [4], in data set [5] (substrate midazolam) and in data set [5] (substrate testosterone) was over 50 µM in each case.
As for `[2H]C([2H])([2H])N(C[C@@H]1CN(C(=O)Cc2cc(F)c(F)cc2F)CC[C@@]1(O)c1cccc(OC)c1)C([2H])([2H])[2H]` [II-9hydrochloride], the half-life at 2 μM in data set [1] is 5.03 min; in data set [6], 5.19 min. Also, the microsomal CLint at 2 μM in data set [1] was 612 µL/min/mg; in data set [6] it was 659 µL/min/mg. This compound also showed a δOR binding rate in data set [2] of 12.8 ± 0.8%. Besides, the IC50 in data set [3] is over 50 µM; in data set [4], over 50 µM; in data set [5] (substrate midazolam), 48 µM; in data set [5] (substrate testosterone), 47 µM.
With `[2H]C([2H])([2H])N(C[C@@H]1CN(S(=O)(=O)Cc2ccccc2)CC[C@@]1(O)c1cccc(OC)c1)C([2H])([2H])[2H]` [II-3hydrochloride], the half-life at 2 μM stood at 5.24 min in data set [1] and 5.26 min in data set [6]. Moreover, the values for the microsomal CLint at 2 μM in data set [1] and in data set [6] were 660 µL/min/mg and 663 µL/min/mg, respectively. In data set [2], this compound came in with a δOR binding rate of 12.3 ± 2.0%. The IC50 is over 50 µM in data set [3], over 50 µM in data set [4], 46.8 µM in data set [5] (substrate midazolam) and 43.6 µM in data set [5] (substrate testosterone).
On to `COc1cccc([C@]2(O)CCN(S(=O)(=O)Cc3ccccc3)C[C@H]2CN(C)C)c1.Cl` [Example 20 of CN201911076305.X, reference compound], for which, in data set [1] (setting [7]), the CLint is listed as 1101.92 μL/min/mg protein and the t1/2 amounted to 1.26 min. This compound had a δOR binding rate in data set [2] of 10.5 ± 3.7%. In data set [6] (setting [8]), this compound gave a CLint of 839.02 μL/min/mg protein and a t1/2 of 1.65 min.
